For assay [1], the system named is DNBS-induced distal colitis in Wistar derived rats. Kind of assay: Dinitrobenzene sulfonic acid-induced inflammatory bowel syndrome model rats (distal colitis). Type of assay: in vivo, rat. The conditions noted are these: oral, 24 and 2 hours before DNBS, then daily for 5 days; relative to net increase of vehicle+DNBS group. As to the method:
Treatment of Crohn's disease in dinitrobenzene sulfonic acid-induced inflammatory bowel syndrome model rats: Wistar derived male or female rats weighing 200±20 g and fasted for 24 hours were used. Distal colitis was induced by intra-colonic instillation of 2,4-dinitrobenzene sulfonic acid (DNBS, 25 mg in 0.5 mL ethanol 30%) after which air (2 mL) was gently injected through the cannula to ensure that the solution remained in the colon. A test compound and/or vehicle was administered orally 24 and 2 hours before DNBS instillation and then daily for 5 days. One control group was similarly treated with vehicle alone while the other is treated with vehicle plus DNBS. The animals were sacrificed 24 hours after the final dose of test compound administration and each colon was removed and weighed. Colon-to-body weight ratio was then calculated for each animal according to the formula: Colon (g)/BW×100. The “Net” increase in ratio of Vehicle-control+DNBS group relative to Vehicle-control group was used as a base for comparison with test substance treated groups and expressed as “% Deduction.” Pyrimidine compounds of this invention (e.g., Compound 12) reproducibly had about 30% deduction. A 30% or more reduction in colon-to-body weight ratio, relative to the vehicle treated control group, was considered significant.

The test system of assay [2] is adjuvant arthritis (AA) in female Lewis rats. Kind of assay: Treatment of adjuvant arthritis in rats. The assay is classed as in vivo, rat. The conditions noted are these: oral, once a day for 12 days; dose-dependent. As to the method:
A heterocyclic compound can also be evaluated by animal studies. For example, one of such studies involves the ability of a test compound to treat adjuvant arthritis (i.e., a IL-12 overproduction related disorder) in rats.
Treatment of adjuvant arthritis in rats: Adjuvant arthritis (AA) was induced in female Lewis rats by the intracutaneous injection (base of the tail) of 0.1 mL of a 10 mg/mL bacterial suspension made from ground, heat-killed Mycobacterium tuberculosis H37Ra suspended in incomplete Freund's adjuvant. Rats were given a test compound orally once a day for 12 days, starting the day following the induction. The development of polyarthritis was monitored daily by macroscopic inspection and assignment of an arthritis index to each animal, during the critical period (days 10 to 25 post-immunization).
The intensity of polyarthritis was scored according to the following scheme: (a) Grade each paw from 0 to 3 based on erythema, swelling, and deformity of the joints: 0 for no erythema or swelling; 0.5 if swelling is detectable in at least one joint; 1 for mild swelling and erythema; 2 for swelling and erythema of both tarsus and carpus; and 3 for ankylosis and bony deformity. Maximum score for all 4 paws was thus 12. […]

In assay [3] the test system is IL-12 production in human PBMC or THP-1 cells. Briefly: In vitro inhibition of IL-12 production in stimulated human PBMC or THP-1 cells (ELISA). Type of assay: cell-based. The conditions noted are these: representative in vitro IC50 data. From the text:
The biological activities of a heterocyclic compound can be evaluated by a number of cell-based assays. One of such assays can be conducted using cells from human peripheral blood mononuclear cells (PBMC) or human monocytic cell line (THP-1). The cells are stimulated with a combination of human interferon-γ (IFNγ) and lipopolysaccharide or a combination of IFNγ and Staphylococcus aureus Cowan I in the presence of a test compound. The level of inhibition of IL-12 production can be measured by determining the amount of p70 by using a sandwich ELISA assay with anti-human IL-12 antibodies. IC50 of the test compound can then be determined. Specifically, PBMC or THP-1 cells are incubated with the test compound. Cell viability was assessed using the bioreduction of MTS [3-(4,5-dimethylthiazol-2-yl)-5-(3-carboxymethoxyphenyl)-2-(4-sulfophenyl)-2H-tetrazolium] (Promega, Madison, Wis.).
Reagents. Staphylococcus aureus Cowan I (SAC) was obtained from Calbiochem (La Jolla, Calif.), and lipopolysaccharide (LPS, Serratia marscencens) was obtained from Sigma (St. Louis, Mo.). Human and mouse recombinant IFNγ were purchased from Boehringer Mannheim (Mannheim, Germany) and Pharmingen (San Diego, Calif.), respectively.
Human In Vitro Assay. Human PBMC were isolated by centrifugation using Ficoll-Paque (Pharmacia Biotech, Uppsala, Sweden) and prepared in RPMI medium supplemented with 10% fetal calf serum (FCS), 100 U/mL penicillin, and 100 μg/mL streptomycin. PBMC were plated in wells of a 96-well plate at a concentration of 5×10^5 cells/well, and primed by adding IFNγ (30 U/mL) for 22 h and stimulated by adding LPS (1 μg/mL), or by adding IFNγ (100 U/mL) and then stimulated by adding SAC (0.01%). A test pyrimidine compound was dissolved in DMSO, and added to wells of the 96-well plate. The final DMSO concentration was adjusted to 0.25% in all cultures, including the compound-free control. Human THP-1 cells were plated in wells, primed by adding IFNγ (100 U/mL) for 22 h and stimulated by adding SAC (0.025%) in the presence of different concentrations of the pyrimidine compound. Cell-free supernatants were taken 18 h later for measurement of cytokines. Cell viability was assessed using the bioreduction of MTS. Cell survival was estimated by determining the ratio of the absorbance in compound-treated groups versus compound-free control.
The supernatant was assayed for the amount of IL-12p40, IL-12p70, or IL-10 by using a sandwich ELISA with anti-human antibodies, i.e., a Human IL-12 p40 ELISA kit from R&D Systems (Berkeley, Calif.), and a Human IL-12 p70 or IL-10 ELISA kit from Endogen (Cambridge, Mass.). Assays were based on the manufacturer's instructions.
The biological activities of pyrimidine compounds were tested on human PBMC or THP-1 cells. Unexpectedly, some of the test compounds have IC50 values as low as <1 nM.
Background: An ELISA detects its analyte on a solid surface through an enzyme-linked reagent.

The values that follow come from patent US7872005B2, “2-substituted heteroaryl compounds” (Synta Pharmaceuticals Corporation, priority 2004, dated 2011).

For the molecule `Cc1cccc(/C=N/Nc2cc(N3CCOCC3)nc(CCOC(=O)Nc3cccc(C(F)(F)F)c3)n2)c1` [Compound 12, (3-Trifluoromethyl-phenyl)-carbamic acid 2-{4-[N′-(3-methyl-benzylidene)-hydrazino]-6-morpholin-4-yl-pyrimidin-2-yl}-ethyl ester], the “% Deduction (colon-to-body weight ratio)” value in assay [1] is reported as “about 30%”. Further, in assay [2], the arthritic score result is “reduced the arthritic score” and the development of polyarthritis entry is on record as “delayed the development of polyarthritis”. In assay [3], the IC50 (commonly the point on the concentration scale where inhibition reaches its midpoint) was less than 25 nM.
